The source made the active and inactive calls. The rule behind the calls is not given here.
Test: Antioxidant activity assessed as hydroxyl radical scavenging activity at 10 mM at pH 7 by fenton reaction
Assay type: functional

Compound | Activity
Cc1c(N)c(=O)n(-c2ccccc2)n1C | Active
Cc1c(N(C)C)c(=O)n(-c2ccccc2)n1C | Active
CNc1c(C)n(C)n(-c2ccccc2)c1=O | Active
